Here are results for nine compounds from the supplement of paper PMC10627819.

Holding throughout (test): Bliss interaction score (quartile over a dose matrix) (fitness difference); higher = more antagonism (negative = synergy)
One experiment relates to B. subtilis 168. The gist of the method: (§1)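 Fitness was defined as normalised growth: OD595 at the start of stationary phase divided by the plate's robust no-drug mean and capped at 1. Single-drug fitness was inferred from combination measurements. The Bliss score is observed fitness minus the product of the single-drug values, summarised by quartiles across technical, biological and donor/recipient replicates.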

A further experiment concerns S. aureus DSM 20231. The method in brief:
as §1

The next experiment relates to S. aureus Newman. The method in brief:
as §1

A further experiment has as its system S. pneumoniae D39V. The method in brief:
as §1
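Note: first quartile when negative (synergy) and third quartile when positive (antagonism).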

On to `CC[C@H]1OC(=O)[C@H](C)[C@@H](O[C@H]2C[C@@](C)(OC)[C@@H](O)[C@H](C)O2)[C@H](C)[C@@H](O[C@@H]2O[C@H](C)C[C@H](N(C)C)[C@H]2O)[C@](C)(O)C[C@@H](C)C(=O)[C@H](C)[C@@H](O)[C@]1(C)O` [Erythromycin] + Cc1cc(NS(=O)(=O)c2ccc(N)cc2)no1 [Sulfamethoxazol], for which the Bliss interaction score in the experiment on B. subtilis 168 was -0.0511; with S. aureus DSM 20231 it was -0.0354; with S. aureus Newman, -0.0442; in the experiment with S. pneumoniae D39V, -0.0479.
With `CO[C@H]1/C=C/O[C@@]2(C)Oc3c(C)c(O)c4c(O)c(c(/C=N/N5CCN(C)CC5)c(O)c4c3C2=O)NC(=O)/C(C)=C\C=C\[C@H](C)[C@H](O)[C@@H](C)[C@@H](O)[C@@H](C)[C@H](OC(C)=O)[C@@H]1C` [Rifampicin] + CCCCCCCCCC(=O)N[C@@H]1[C@H]([C@@H]([C@H](O[C@H]1OC2=C3C=C4C=C2OC5=C(C=C(C=C5)[C@H]([C@H]6C(=O)N[C@@H](C7=C(C(=CC(=C7)O)OC8[C@H]([C@H]([C@@H]([C@H](O8)CO)O)O)O)C9=C(C=CC(=C9)[C@H](C(=O)N6)NC(=O)[C@@H]4NC(=O)[C@@H]1C2=CC(=CC(=C2)OC2=C(C=CC(=C2)[C@H](C(=O)N[C@H](CC2=CC(=C(O3)C=C2)Cl)C(=O)N1)N)O)O)O)C(=O)O)O[C@H]1[C@@H]([C@H]([C@@H]([C@H](O1)CO)O)O)NC(=O)C)Cl)CO)O)O [Teicoplanin], the Bliss interaction score in the experiment with B. subtilis 168 (main component drawn) was 0.176; in the experiment on S. aureus DSM 20231 (main component drawn), -0.0357; with S. aureus Newman (main component drawn) it was -0.0536; with S. pneumoniae D39V (main component drawn), 0.0769.
On to `CC[C@H]1OC(=O)[C@H](C)[C@@H](O[C@H]2C[C@@](C)(OC)[C@@H](O)[C@H](C)O2)[C@H](C)[C@@H](O[C@@H]2O[C@H](C)C[C@H](N(C)C)[C@H]2O)[C@](C)(O)C[C@@H](C)C(=O)[C@H](C)[C@@H](O)[C@]1(C)O` [Erythromycin] + CN[C@H](CC(C)C)C(=O)N[C@H]1C(=O)N[C@@H](CC(N)=O)C(=O)N[C@H]2C(=O)N[C@H]3C(=O)N[C@H](C(=O)N[C@H](C(=O)O)c4cc(O)cc(O)c4-c4cc3ccc4O)[C@H](O[C@H]3C[C@](C)(N)[C@@H](O)[C@H](C)O3)c3ccc(c(Cl)c3)Oc3cc2cc(c3O[C@@H]2O[C@H](CO)[C@@H](O)[C@H](O)[C@H]2O[C@H]2C[C@](C)(NCc3ccc(-c4ccc(Cl)cc4)cc3)[C@@H](O)[C@H](C)O2)Oc2ccc(cc2Cl)[C@H]1O [Oritavancin], for which the Bliss interaction score is 0.0299 with B. subtilis 168, -0.023 in the experiment with S. aureus DSM 20231, 0.0605 in the experiment on S. aureus Newman and 0.046 in the experiment with S. pneumoniae D39V.
Consider `CN[C@@H]1[C@H](O)[C@H](NC)[C@H]2O[C@@]3(O)C(=O)C[C@@H](C)O[C@H]3O[C@@H]2[C@H]1O` [Spectinomycin] + CC[C@H]1OC(=O)[C@H](C)C(=O)[C@H](C)[C@@H](O[C@@H]2O[C@H](C)C[C@H](N(C)C)[C@H]2O)[C@](C)(OC)C[C@@H](C)C(=O)[C@H](C)[C@H]2N(CCCCn3cnc(-c4cccnc4)c3)C(=O)O[C@]12C [Telithromycin], for which the Bliss interaction score in the experiment with B. subtilis 168 is 0.038; in the experiment with S. aureus DSM 20231, -0.0419; with S. aureus Newman, -0.0947; with S. pneumoniae D39V, -0.14.
For `CO[C@@H]1[C@@H](OC(N)=O)[C@@H](O)[C@H](Oc2ccc3c(O)c(NC(=O)c4ccc(O)c(CC=C(C)C)c4)c(=O)oc3c2C)OC1(C)C` [Novobiocin] + CN[C@H](CC(C)C)C(=O)N[C@H]1C(=O)N[C@@H](CC(N)=O)C(=O)N[C@H]2C(=O)N[C@H]3C(=O)N[C@H](C(=O)N[C@H](C(=O)O)c4cc(O)cc(O)c4-c4cc3ccc4O)[C@H](O[C@H]3C[C@](C)(N)[C@@H](O)[C@H](C)O3)c3ccc(c(Cl)c3)Oc3cc2cc(c3O[C@@H]2O[C@H](CO)[C@@H](O)[C@H](O)[C@H]2O[C@H]2C[C@](C)(NCc3ccc(-c4ccc(Cl)cc4)cc3)[C@@H](O)[C@H](C)O2)Oc2ccc(cc2Cl)[C@H]1O [Oritavancin] the same measures were -0.0421, -0.0612, -0.0768 and 0.0403.
As for `CO[C@@]12[C@H](COC(N)=O)C3=C(C(=O)C(C)=C(N)C3=O)N1C[C@@H]1N[C@@H]12` [MitomycinC] + CCC(C)C1C(=O)NC(=C)C(=O)NC(C(=O)NC(CSCC(C(=O)N1)NC(=O)/C(=C/C)/NC(=O)C(C(C)CC)N)C(=O)NC2C(SCC(NC(=O)CNC(=O)C3CCCN3C2=O)C(=O)NC(CCCCN)C(=O)NC4C(SCC(NC(=O)CNC(=O)C(NC(=O)C(NC(=O)C(NC(=O)CNC4=O)C)CC(C)C)CCSC)C(=O)NC(CC(=O)N)C(=O)NC(CCSC)C(=O)NC(CCCCN)C(=O)NC5C(SCC6C(=O)NC(C(=O)NC(CSC(C(C(=O)N6)NC(=O)C(NC5=O)C)C)C(=O)NC(CO)C(=O)NC(C(C)CC)C(=O)NC(CC7=CN=CN7)C(=O)NC(C(C)C)C(=O)NC(=C)C(=O)NC(CCCCN)C(=O)O)CC8=CN=CN8)C)C)C)CC(C)C [Nisin], the Bliss interaction score in the experiment with B. subtilis 168 (main component drawn) is -0.0279; with S. aureus DSM 20231 (main component drawn) it was -0.242; in the experiment on S. aureus Newman (main component drawn), -0.0537; with S. pneumoniae D39V (main component drawn), -0.0423.
Turning to `CC[C@H](C)[C@H](N)C1=N[C@H](C(=O)N[C@@H](CC(C)C)C(=O)N[C@H](CCC(=O)O)C(=O)N[C@H](C(=O)N[C@H]2CCCCNC(=O)[C@H](CC(N)=O)NC(=O)[C@@H](CC(=O)O)NC(=O)[C@H](Cc3cnc[nH]3)NC(=O)[C@@H](Cc3ccccc3)NC(=O)[C@H]([C@@H](C)CC)NC(=O)[C@@H](CCCN)NC2=O)[C@@H](C)CC)CS1` [Bacitracin] + CC[C@H]1OC(=O)[C@H](C)[C@@H](O[C@H]2C[C@@](C)(OC)[C@@H](O)[C@H](C)O2)[C@H](C)[C@@H](O[C@@H]2O[C@H](C)C[C@H](N(C)C)[C@H]2O)[C@](C)(O)C[C@@H](C)C(=O)[C@H](C)[C@@H](O)[C@]1(C)O [Erythromycin], the Bliss interaction score in the experiment on B. subtilis 168 (main component drawn) was -0.0517; with S. aureus DSM 20231 (main component drawn), -0.0209; in the experiment with S. aureus Newman (main component drawn), -0.0632; with S. pneumoniae D39V (main component drawn) it was 0.0397.
Take `CN[C@@H]1[C@H](O[C@H]2[C@H](O[C@H]3[C@H](O)[C@@H](O)[C@H](N=C(N)N)[C@@H](O)[C@@H]3N=C(N)N)O[C@@H](C)[C@]2(O)C=O)O[C@@H](CO)[C@H](O)[C@H]1O` [Streptomycin] + Cc1cc(NS(=O)(=O)c2ccc(N)cc2)no1 [Sulfamethoxazol]: the Bliss interaction score was -0.126 in the experiment with B. subtilis 168, 0.0929 with S. aureus DSM 20231, 0.0497 in the experiment with S. aureus Newman and 0.0624 in the experiment with S. pneumoniae D39V.
Turning to `CC[C@H](C)[C@H](N)C1=N[C@H](C(=O)N[C@@H](CC(C)C)C(=O)N[C@H](CCC(=O)O)C(=O)N[C@H](C(=O)N[C@H]2CCCCNC(=O)[C@H](CC(N)=O)NC(=O)[C@@H](CC(=O)O)NC(=O)[C@H](Cc3cnc[nH]3)NC(=O)[C@@H](Cc3ccccc3)NC(=O)[C@H]([C@@H](C)CC)NC(=O)[C@@H](CCCN)NC2=O)[C@@H](C)CC)CS1` [Bacitracin] + C1=CC(=CC(=C1)Cl)NN=C(C#N)C#N [CCCP], the Bliss interaction score in the experiment on B. subtilis 168 (main component drawn) is 0.0608; with S. aureus DSM 20231 (main component drawn), -0.0168; in the experiment with S. aureus Newman (main component drawn), 0.194; in the experiment on S. pneumoniae D39V (main component drawn) it was 0.0638.
